From patent US5591714A, “Derivatives of A82846” (priority 1994, dated 1997)
Converted amounts (≈) assume the structure as drawn.

How the values were obtained:
[1] = tested on: Enterococcus faecium X66; experiment: MIC, standard agar-dilution assay; assay type: cell-based
Protocol: (§1) The formula I compounds have in vitro and in vivo activity against Gram-positive pathogenic bacteria. The MIC's were determined using a standard agar-dilution assays.
^b Formerly Streptococcus faecium X66

[2] = tested on: Streptococcus pneumoniae Park 1; assay type: cell-based
Protocol: as §1

[3] = tested on: Staphylococcus aureus S13E; assay type: cell-based
Protocol: as §1

[4] = tested on: Staphylococcus aureus; experiment: In vivo activity, experimentally infected mice (ED50); settings: Staphylococcus aureus infection; doses administered subcutaneously to mice 1 and 4 hours postinfection
[5] = tested on: vancomycin-susceptible (Vanco^s) E. faecium and E. faecalis; experiment: Susceptibility of vancomycin-susceptible enterococci, agar-dilution MIC; assay type: cell-based; settings: n = 34 strains; end points read after 24-hour incubation
Protocol: (§2) End points were read after 24-hour incubation. The ratio was calculated by dividing the mean MIC of the compound against the vancomycin-resistant strains by the mean MIC of the compound against the vancomycin-susceptible strains.

[6] = tested on: Streptococcus pyogenes C203; experiment: MIC, standard agar-dilution assay; assay type: cell-based
Protocol: as §1

[7] = tested on: Haemophilus influenzae C.L.; experiment: MIC, standard agar-dilution assay; assay type: cell-based
Protocol: as §1

[8] = tested on: Klebsiella pneumoniae X68; experiment: MIC, standard agar-dilution assay; assay type: cell-based
Protocol: as §1

[9] = tested on: Staphylococcus aureus X400; experiment: MIC, standard agar-dilution assay; assay type: cell-based
Protocol: as §1

[10] = tested on: Escherichia coli EC14; experiment: MIC, standard agar-dilution assay; assay type: cell-based
Protocol: as §1

[11] = tested on: Escherichia coli N10; experiment: MIC, standard agar-dilution assay; assay type: cell-based
Protocol: as §1

[12] = tested on: Staphylococcus epidermidis 222; experiment: MIC, standard agar-dilution assay; assay type: cell-based
Protocol: as §1

[13] = tested on: Staphylococcus aureus V41; experiment: MIC, standard agar-dilution assay; assay type: cell-based
Protocol: as §1

[14] = tested on: Staphylococcus epidermidis EPI270; experiment: MIC, standard agar-dilution assay; assay type: cell-based
Protocol: as §1

[15] = tested on: Klebsiella pneumoniae KAE; experiment: MIC, standard agar-dilution assay; assay type: cell-based
Protocol: as §1

[16] = tested on: Haemophilus influenzae 76; experiment: MIC, standard agar-dilution assay; assay type: cell-based
Protocol: as §1

[17] = tested on: Staphylococcus aureus NRRL X1.1; experiment: MIC, standard agar-dilution assay; assay type: cell-based
Protocol: as §1

[18] = tested on: Escherichia coli TEM; experiment: MIC, standard agar-dilution assay; assay type: cell-based
Protocol: as §1

[19] = tested on: Klebsiella pneumoniae X26; experiment: MIC, standard agar-dilution assay; assay type: cell-based
Protocol: as §1

[20] = tested on: six vancomycin-susceptible strains of staphylococci and enterococci; experiment: Effect of human serum on the MIC, serial dilution assay; assay type: cell-based; settings: for MIC determined in absence of added serum: absence (-) of human serum; for ratio of the MIC in the presence of added serum to the MIC in the absence of added serum: indication of the degree of serum binding; for MIC determined in presence of human serum: broth supplemented with human serum to 40%
Source text: Another important property of the formula I compounds is the low binding of the compounds to serum proteins when compared with other glycopeptide antibiotics. […] The ratio of the MIC measured in the presence of added serum to the MIC measured in the absence of added serum ("ratio") is an indication of the degree of serum binding. […] A ratio that is greater than one, for example about ten, indicates the compound has a high degree of serum binding.

[21] = tested on: Streptococcus pyogenes; experiment: In vivo activity, experimentally infected mice (ED50); settings: Streptococcus pyogenes infection; doses administered subcutaneously to mice 1 and 4 hours postinfection
[22] = tested on: Streptococcus pneumoniae; experiment: as above; settings: Streptococcus pneumoniae infection; doses administered subcutaneously to mice 1 and 4 hours postinfection
[23] = tested on: Enterococcus faecalis 2041; experiment: MIC, standard agar-dilution assay; assay type: cell-based
Protocol: as §1
^c Formerly Streptococcus faecalis 2041

[24] = tested on: vancomycin-resistant (Vanco^r) E. faecium and E. faecalis; experiment: Susceptibility of vancomycin-resistant enterococci, agar-dilution MIC; assay type: cell-based
Protocol: as §2

[25] = tested on: human serum protein; settings: cited from earlier work

CNC(CC(C)C)C(=O)NC1C(=O)NC(CC(N)=O)C(=O)NC2C(=O)NC3C(=O)NC(C(=O)NC(C(=O)O)c4cc(O)cc(O)c4-c4cc3ccc4O)C(OC3CC(C)(N)C(O)C(C)O3)c3ccc(c(Cl)c3)Oc3cc2cc(c3OC2OC(CO)C(O)C(O)C2OC2CC(C)(NCc3ccc(Br)cc3)C(O)C(C)O2)Oc2ccc(cc2Cl)C1O (centres unmarked) [Compound 58]
MIC [1]: .25 µg/mL (≈ 0.142 µM)
MIC [2]: .125 µg/mL (≈ 0.071 µM)
MIC [3]: 1 µg/mL (≈ 0.568 µM)
ED50 [4]: 0.38 mg/kg/2
Geometric Mean MIC, Vanco^s Strains [5]: 0.67 µg/mL
MIC [6]: .125 µg/mL (≈ 0.071 µM)
MIC [7]: > 128 µg/mL
MIC [8]: > 128 µg/mL
MIC [9]: 1 µg/mL (≈ 0.568 µM)
MIC [10]: > 128 µg/mL
MIC [11]: > 128 µg/mL
MIC [12]: .5 µg/mL (≈ 0.284 µM)
MIC [13]: .5 µg/mL (≈ 0.284 µM)
MIC [14]: 2 µg/mL (≈ 1.14 µM)
MIC [15]: > 128 µg/mL
MIC [16]: > 128 µg/mL
MIC [17]: .5 µg/mL (≈ 0.284 µM)
MIC [18]: > 128 µg/mL
MIC [19]: > 128 µg/mL
MIC determined in absence of added serum [20]: 0.43
ratio of the MIC in the presence of added serum to the MIC in the absence of added serum [20]: 2.3
MIC determined in presence of human serum [20]: 1.0
ED50 [21]: 0.05 mg/kg/2
ED50 [22]: 0.08 mg/kg/2
MIC [23]: .25 µg/mL (≈ 0.142 µM)
Ratio (mean MIC vancomycin-resistant strains / mean MIC vancomycin-susceptible strains) [24]: 4.6
Geometric Mean MIC, Vanco^r Strains ([24]; n = 25 strains, end points read after 24-hour incubation): 3.1 µg/mL

CN[C@H](CC(C)C)C(=O)N[C@H]1C(=O)N[C@@H](CC(N)=O)C(=O)N[C@H]2C(=O)N[C@H]3C(=O)N[C@H](C(=O)N[C@H](C(=O)O)c4cc(O)cc(O)c4-c4cc3ccc4O)[C@H](O)c3ccc(c(Cl)c3)Oc3cc2cc(c3O[C@@H]2O[C@H](CO)[C@@H](O)[C@H](O)[C@H]2O[C@H]2C[C@](C)(N)[C@H](O)[C@H](C)O2)Oc2ccc(cc2Cl)[C@H]1O [vancomycin]
level of human serum protein binding [25]: 55%

Teicoplanin [reference compound]
level of human serum protein binding [25]: about 90%
MIC determined in absence of added serum [20]: 0.25
ratio of the MIC in the presence of added serum to the MIC in the absence of added serum [20]: 12.6
MIC determined in presence of human serum [20]: 3.8
